Assay results: US6610684B2, “Fused azepinone cyclin dependent kinase inhibitors” (The United States of America as represented by the …, priority 1998, dated 2003)
Read-outs that look alike come from different tables or passages of the source.

Tests used:
[1] = Plasma pharmacokinetics after single i.v. dose; type: in vivo, Sprague Dawley rats; conditions: Sprague-Dawley, iv, rat

melting point | SMILES | further results
> 330 °C | O=C1Cc2c([nH]c3ccccc23)-c2cc(Br)ccc2N1 [Example 2-Br, 2-bromo-7,12-dihydro-indolo[3,2-d][1]benzazepin-6(5H)-one] | 
> 330 °C | COc1ccc2[nH]c3c(c2c1)CC(=O)Nc1ccccc1-3 [Example 9-OCH3, 7,12-dihydro-9-methoxy-indolo[3,2-d][1]benzazepin-6(5H)-one] | 
308 to 310 °C (dec.) | O=C1Cc2c([nH]c3ccc(Br)cc23)-c2cc(C[C@@H]3CO3)ccc2N1 [Example 34] | 

More lines, now with the values behind:

SMILES | melting point | further results
COc1cc2c(cc1OC)-c1[nH]c3ccc(C#N)cc3c1CC(=O)N2 [2,3-dimethoxy, 9-cyano, 2,3-dimethoxy-6-oxo-5,6,7,12-tetrahydro-indolo[3,2-d][1]benzazepine-9-carbonitrile] | > 330 °C | 
COc1cc2c(cc1OC)-c1[nH]c3ccc([N+](=O)[O-])cc3c1CC(=O)N2 [2,3-dimethoxy, 9-nitro, 2,3-dimethoxy-9-nitro-7,12-dihydro-indolo[3,2-d][1]benzazepin-6(5H)-one] | > 330 °C | 
O=C1Cc2c([nH]c3ccc([N+](=O)[O-])cc23)-c2cc(Br)ccc2N1 [2-Br,9-nitro, 2-bromo-9-nitro-7,12-dihydro-indolo[3,2-d][1]benzazepin-6(5H)-one] | > 330 °C | 
O=C1Cc2c([nH]c3ccc(C(F)(F)F)cc23)-c2cc(C#CC3(O)CCCCC3)ccc2N1 [2-[2-(1-hydroxycyclohexyl)-ethinyl]-9-trifluoromethyl-7,12-dihydro-indolo[3,2-d][1]-benzazepin-6(5H)-one] | > 330 °C | 
COOC/C=C/c1ccc2c(c1)-c1[nH]c3ccc(C(F)(F)F)cc3c1CC(=O)N2 [3-(6-oxo-9-trifluoromethyl-5,6,7,12-tetrahydro-indolo[3,2d][1]benzazepin-2-yl)-acrylic acid methyl ester] | > 330 °C | 
S=C1Cc2c([nH]c3ccc(Br)cc23)-c2ccccc2N1 [6 = S, 9-Br, 9-bromo-7,12-dihydro-indolo[3,2-d][1]benzazepine-6(5H) -thione] | > 330 °C | 
O=C1Cc2c([nH]c3ccc([N+](=O)[O-])cc23)-c2ccccc2N1 [Example 9-nitro, 9-nitro-7,12-dihydro-indolo[3,2-d][1]benzazepin-6(5H)-one] |  | clearance ([1]; single i.v. 5 mg/kg in DMSO): 16 mL/min/kg; half-life ([1]; single i.v. 5 mg/kg in DMSO, read-out: half life in the plasma): 46 min; clearance ([1]; single i.v. 10 mg/kg in DMSO): 14 mL/min/kg; half-life ([1]; single i.v. 10 mg/kg in DMSO, read-out: half life in plasma): 66 min
